Data taken from publication PMC3792642 (Acta Crystallographica Section D: Biological Crystallography, 2013).
Peptide text beside a SMILES is read from it.

Tested on: MtbDsbA catalytic Cys89 to Ala mutant
Assay type: binding, Mycobacterium tuberculosis H37Rv
Conditions: ITC, under the conditions tested

CC(=O)N[C@@H](Cc1ccc(O)cc1)C(=O)N[C@H](C(=O)N1CCC[C@H]1C(=O)N[C@@H](CO)C(=O)N[C@@H](CS)C(=O)N[C@@H](CC(N)=O)C(=O)N[C@H](C(N)=O)C(C)C)C(C)C [YVPSCNV] (Ac-YVPSCNV-NH2)
Binding of VKOR peptide to the MtbDsbA catalytic Cys89 to Ala mutant: abolished binding
